Laboratory results published in ChEMBL document CHEMBL1126012 (J Med Chem, 1992).

molecular target: Sodium-dependent dopamine transporter (Rattus norvegicus, UniProt P23977); experiment: Inhibition of [3H]3-beta-(p-fluorophenyl)tropane-2beta-carboxylic acid methyl ester [3H]7a binding to Dopamine transporter of rat striatal membranes; format: cell membranes, Membrane
Sequence (P23977 whole entry): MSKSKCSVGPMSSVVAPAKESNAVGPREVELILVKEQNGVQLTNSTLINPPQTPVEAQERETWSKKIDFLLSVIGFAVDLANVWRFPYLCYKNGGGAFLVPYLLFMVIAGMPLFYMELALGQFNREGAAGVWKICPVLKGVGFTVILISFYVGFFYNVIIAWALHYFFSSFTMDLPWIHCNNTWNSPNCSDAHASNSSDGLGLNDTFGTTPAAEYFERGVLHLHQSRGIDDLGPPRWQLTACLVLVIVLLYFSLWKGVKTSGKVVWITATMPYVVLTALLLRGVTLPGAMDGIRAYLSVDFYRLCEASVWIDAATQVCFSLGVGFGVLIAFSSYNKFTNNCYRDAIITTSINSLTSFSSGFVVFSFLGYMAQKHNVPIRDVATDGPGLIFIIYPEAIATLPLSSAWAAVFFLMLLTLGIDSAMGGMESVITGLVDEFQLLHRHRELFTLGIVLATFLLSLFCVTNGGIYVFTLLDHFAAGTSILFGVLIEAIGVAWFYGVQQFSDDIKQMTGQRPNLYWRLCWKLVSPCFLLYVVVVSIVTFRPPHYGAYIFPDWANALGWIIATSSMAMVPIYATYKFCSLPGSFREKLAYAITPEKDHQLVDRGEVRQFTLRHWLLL

Row | Structure (SMILES) | IC50 [µM]
1 | COC(=O)C1C(OC(=O)c2ccccc2)C[C@H]2CCC1N2Cc1ccccc1 (some centres undefined) | 0.668
2 | CN1CC2CC1C[C@@H](OC(=O)c1ccccc1)C2 (stereo in doubt; 4d) | 4.95
3 | CN1CC2CC(OC(=O)c3ccccc3)CC1C2 (stereo in doubt; 4d-(-)) | 2.85
4 | CN1[C@@H]2CC[C@H]1C[C@H](OC(=O)c1ccccc1)C2 | 21.2
5 | COC(=O)C1C2CC[C@H](CC1OC(=O)c1ccccc1)N2 (some centres undefined) | 0.303
6 | CN1CC2CC(OC(=O)c3ccccc3)CC1C2 (stereo in doubt; 4d-(+)) | 2.94
7 | CN1CC2CC1C[C@@H](OC(=O)c1ccccc1)C2 (stereo in doubt; 4c) | 19.8
8 | COC(=O)C1C(OC(=O)c2ccccc2)C[C@H]2CCC1[N+]2(C)C (some centres undefined) | 10.7
9 | COC(=O)C1C(OC(=O)c2ccccc2)C[C@H]2CCC1N2C(C)=O (some centres undefined) | 3.37
